In the supplement of paper PMC10307832:

Key:
Assay in all cases: relative viability (nuclei count vs DMSO), 5 days (fraction); higher = more cells survive
Cediranib + Phenformin = compound: COc1cc2c(Oc3ccc4[nH]c(C)cc4c3F)ncnc2cc1OCCCN1CCCC1 [Cediranib] + N=C(N)NC(=N)NCCc1ccccc1 [Phenformin] (partner 250 µM)
In short: (§1)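 Values are medians from duplicate plates. Each reflects relative viability, defined as the nuclei count of treated wells over that of vehicle wells. Lung cancer cell lines in 1536-well plates were pin-tool dosed one day after seeding with one drug alone or with a fixed anchor-drug dose plus five library-drug doses (not always all listed) in √10 steps, then fixed, stained and imaged at 4× after 5 days.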

Decitabine + Crizotinib = compound: Nc1ncn([C@H]2C[C@H](O)[C@@H](CO)O2)c(=O)n1 [Decitabine] + C[C@@H](Oc1cc(-c2cnn(C3CCNCC3)c2)cnc1N)c1c(Cl)ccc(F)c1Cl [Crizotinib] (partner 1 µM)
In short: as §1

Decitabine + Lapatinib = compound: Nc1ncn([C@H]2C[C@H](O)[C@@H](CO)O2)c(=O)n1 [Decitabine] + CS(=O)(=O)CCNCc1ccc(-c2ccc3ncnc(Nc4ccc(OCc5cccc(F)c5)c(Cl)c4)c3c2)o1 [Lapatinib] (partner 2 µM)
In short: as §1

Cediranib + Foretinib = compound: COc1cc2c(Oc3ccc4[nH]c(C)cc4c3F)ncnc2cc1OCCCN1CCCC1 [Cediranib] + COc1cc2c(Oc3ccc(NC(=O)C4(C(=O)Nc5ccc(F)cc5)CC4)cc3F)ccnc2cc1OCCCN1CCOCC1 [Foretinib] (partner 0.25 µM)
In short: as §1

Cell Line	relative viability (Cediranib + Phenformin; first compound 0.04 µM)	relative viability (Cediranib + Phenformin; first compound 0.1265 µM)	relative viability (Cediranib + Phenformin; first compound 0.4 µM)	relative viability (Cediranib + Phenformin; first compound 1.265 µM)	relative viability (Cediranib + Phenformin; first compound 4 µM)	relative viability (Decitabine + Crizotinib; first compound 0.04 µM)	relative viability (Decitabine + Crizotinib; first compound 0.1265 µM)	relative viability (Decitabine + Crizotinib; first compound 0.4 µM)	relative viability (Decitabine + Crizotinib; first compound 1.265 µM)	relative viability (Decitabine + Crizotinib; first compound 4 µM)	relative viability (Decitabine + Lapatinib; first compound 0.04 µM)	relative viability (Decitabine + Lapatinib; first compound 0.1265 µM)	relative viability (Decitabine + Lapatinib; first compound 0.4 µM)	relative viability (Decitabine + Lapatinib; first compound 1.265 µM)	relative viability (Decitabine + Lapatinib; first compound 4 µM)	relative viability (Cediranib + Foretinib; first compound 0.04 µM)	relative viability (Cediranib + Foretinib; first compound 0.1265 µM)	relative viability (Cediranib + Foretinib; first compound 0.4 µM)	relative viability (Cediranib + Foretinib; first compound 1.265 µM)	relative viability (Cediranib + Foretinib; first compound 4 µM)
NCI-H2023	0.417	0.443	0.396	0.42	0.458	0.471	0.455	0.285	0.217	0.133	0.55	0.519	0.125	0.231	0.157	0.775	0.922	0.924	0.878	1.01
EBC-1	–	–	–	–	–	0.146	0.176	0.193	0.144	0.148	0.2	0.163	0.162	0.195	0.152	0.109	0.107	0.103	0.104	0.0908
NCI-H1666	0.564	0.488	0.524	0.548	0.579	0.7	0.75	0.708	0.512	0.46	0.622	0.66	0.488	0.56	0.476	0.972	1.01	0.916	0.945	1
NCI-H1975	0.421	0.415	0.394	0.459	0.426	0.491	0.355	0.312	0.305	0.28	0.538	0.456	0.364	0.327	0.29	0.952	1.03	0.944	1.05	1.04
NCI-H2170	0.373	0.284	0.403	0.406	0.419	0.942	0.875	0.79	0.463	0.395	0.281	0.267	0.268	0.251	0.249	1.02	0.987	0.931	1.01	1.12
NCI-H1355	0.441	0.456	0.427	0.442	0.408	0.642	0.495	0.413	0.29	0.281	0.884	0.592	0.444	0.286	0.279	0.991	1.02	0.894	0.948	1.09
A549	0.135	0.121	0.211	0.153	0.212	0.498	0.658	0.348	0.13	0.102	0.898	0.843	0.49	0.305	0.19	0.903	1.07	0.858	0.975	0.899
SK-MES-1	0.663	0.748	0.618	0.626	0.639	0.866	0.703	0.329	0.333	0.289	0.463	0.49	0.406	0.383	0.286	0.834	1.02	0.927	0.901	0.976
EKVX	0.212	0.177	0.221	0.259	0.233	0.828	0.73	0.503	0.396	0.364	0.211	0.2	0.213	0.184	0.163	0.67	0.418	0.74	0.705	0.751
RERF-LC-KJ	0.42	0.442	0.386	0.476	0.426	0.812	0.77	0.245	0.551	0.561	0.804	0.894	0.704	0.717	0.656	0.917	0.889	0.873	0.862	0.953
NCI-H1755	0.528	0.519	0.616	0.618	0.677	0.762	0.811	0.804	0.53	0.317	1.02	0.991	0.836	0.573	0.481	0.97	0.941	0.903	0.944	0.908
NCI-H661	0.294	0.296	0.281	0.267	0.31	0.929	0.945	0.918	0.619	0.523	0.465	0.455	0.382	0.297	0.269	1.04	0.971	0.956	0.978	1.11
LOU-NH91	0.688	0.986	0.696	0.625	0.673	0.509	0.683	0.615	0.613	0.656	0.764	0.712	0.649	0.689	0.661	0.903	1.12	0.859	0.961	0.829
LXF-289	0.565	0.404	0.487	0.49	0.549	0.579	0.557	0.432	0.341	0.308	0.809	0.733	0.484	0.402	0.354	1.02	0.822	0.912	0.982	0.936
HCC-44	0.195	–	0.241	0.224	0.201	0.641	0.72	0.28	0.449	0.374	0.84	1	0.298	0.661	0.51	–	–	–	–	–
HARA	0.331	–	0.391	0.429	0.454	0.774	0.745	0.63	0.379	0.352	0.737	0.935	0.443	0.432	0.296	0.92	–	0.766	0.868	0.706

Cell Line	relative viability (Cediranib + Phenformin; first compound 0.04 µM)	relative viability (Cediranib + Phenformin; first compound 0.1265 µM)	relative viability (Cediranib + Phenformin; first compound 0.4 µM)	relative viability (Cediranib + Phenformin; first compound 1.265 µM)	relative viability (Cediranib + Phenformin; first compound 4 µM)	relative viability (Decitabine + Crizotinib; first compound 0.04 µM)	relative viability (Decitabine + Crizotinib; first compound 0.1265 µM)	relative viability (Decitabine + Crizotinib; first compound 0.4 µM)	relative viability (Decitabine + Crizotinib; first compound 1.265 µM)	relative viability (Decitabine + Crizotinib; first compound 4 µM)	relative viability (Decitabine + Lapatinib; first compound 0.04 µM)	relative viability (Decitabine + Lapatinib; first compound 0.1265 µM)	relative viability (Decitabine + Lapatinib; first compound 0.4 µM)	relative viability (Decitabine + Lapatinib; first compound 1.265 µM)	relative viability (Decitabine + Lapatinib; first compound 4 µM)	relative viability (Cediranib + Foretinib; first compound 0.04 µM)	relative viability (Cediranib + Foretinib; first compound 0.1265 µM)	relative viability (Cediranib + Foretinib; first compound 0.4 µM)	relative viability (Cediranib + Foretinib; first compound 1.265 µM)	relative viability (Cediranib + Foretinib; first compound 4 µM)
201T	0.454	0.587	0.422	0.483	0.41	1.02	1	1.15	0.965	0.914	1.04	1.04	1.13	0.627	0.993	1.28	1.57	1.03	1.02	0.754
LC-2-ad	0.595	0.497	0.612	0.569	0.554	0.391	0.371	0.34	0.262	0.283	0.676	0.775	0.317	0.245	0.37	1.12	0.581	0.883	1.04	0.891
NCI-H1792	0.237	0.41	0.197	0.322	0.284	0.97	1.01	0.948	0.501	0.553	0.851	0.94	0.806	0.564	0.53	–	–	–	–	–
Calu-6	–	–	–	–	–	0.495	0.478	0.283	0.227	0.224	0.87	0.689	0.316	0.308	0.264	0.921	0.944	0.857	0.863	0.911
LCLC-103H	0.319	0.39	0.298	0.344	0.352	1.01	1.02	0.78	0.82	0.79	–	–	–	–	–	0.819	0.964	0.686	0.823	0.832
NCI-H1395	0.49	0.427	0.467	0.444	0.42	–	–	–	–	–	0.819	0.675	0.571	0.528	0.821	1.1	1.01	0.911	0.976	1.13
NCI-H1623	0.587	–	0.553	0.595	0.567	–	–	–	–	–	–	–	–	–	–	0.974	0.59	0.793	0.861	0.805
NCI-H1299	–	–	–	–	–	0.979	0.991	0.956	0.85	0.856	0.972	0.989	0.953	0.918	0.855	1.1	1.05	1.13	1.1	1.15
ChaGo-K-1	0.486	0.361	0.452	0.564	0.576	0.962	0.857	0.631	0.6	0.605	–	–	–	–	–	0.921	0.833	0.837	0.897	1
NCI-H1703	–	–	–	–	–	0.397	0.419	0.214	0.263	0.134	0.698	0.652	0.484	0.36	0.274	0.468	0.37	0.247	0.33	0.337
NCI-H522	0.623	0.608	0.575	0.64	0.687	–	–	–	–	–	–	–	–	–	–	–	–	–	–	–
NCI-H1793	0.231	0.32	0.39	–	0.393	–	–	–	–	–	0.543	0.604	0.489	0.562	0.291	0.758	0.931	0.698	–	0.672
IA-LM	–	–	–	–	–	0.342	0.274	0.2	0.191	0.102	0.503	0.306	0.212	0.169	0.178	1.16	1.32	1.07	1.26	1.33
SW 900	0.658	0.604	0.698	0.496	0.645	–	–	–	–	–	–	–	–	–	–	0.535	0.877	0.878	0.98	1.18
NCI-H441	0.658	–	0.802	0.763	0.991	0.361	0.224	0.223	0.188	0.184	–	–	–	–	–	1.09	–	0.87	0.794	1.14
NCI-H2342	0.563	0.825	0.635	0.466	0.58	–	–	–	–	–	–	–	–	–	–	1.14	1.07	0.927	1.06	1.12
